From ChEMBL document CHEMBL5034035, “Discovery of an Oxycyclohexyl Acid Lysophosphatidic Acid Receptor 1 (LPA1) Antagonist BMS-986278 for the Treatment of Pulmonary Fibrotic Diseases” (J Med Chem, 2021)
Converted amounts (≈) assume the structure as drawn.

Key:
[1] = Protein binding in Sprague-Dawley rat plasma assessed as free fraction at 3 mg/kg, po or 1 mg/kg, iv measured up to 24 hrs by LC-MS/MS analysis; type: ADME, organism-based
[2] = Plasma clearance in CD-1 mouse at 3 mg/kg, po or 1 mg/kg, iv measured up to 24 hrs by LC-MS/MS analysis; type: ADME, organism-based
[3] = Plasma clearance in Sprague-Dawley rat at 3 mg/kg, po or 1 mg/kg, iv measured up to 24 hrs by LC-MS/MS analysis; type: ADME, organism-based
[4] = Plasma clearance in Cynomolgus monkey at 3 mg/kg, po or 1 mg/kg, iv measured up to 24 hrs by LC-MS/MS analysis; type: ADME, organism-based, Macaca fascicularis
[5] = Volume of distribution at steady state in CD-1 mouse at 3 mg/kg, po or 1 mg/kg, iv measured up to 24 hrs by LC-MS/MS analysis; type: ADME, organism-based; details: in vivo, read-out: Vdss
[6] = Oral bioavailability in CD-1 mouse at 3 mg/kg measured up to 24 hrs by LC-MS/MS analysis; type: ADME, organism-based; details: in vivo
[7] = Oral bioavailability in Sprague-Dawley rat at 3 mg/kg measured up to 24 hrs by LC-MS/MS analysis; type: ADME, organism-based; details: in vivo
[8] = Elimination half life in Sprague-Dawley rat at 3 mg/kg, po or 1 mg/kg, iv measured up to 24 hrs by LC-MS/MS analysis; type: ADME, organism-based; details: in vivo, read-out: beta t1/2 (converted)
[9] = Elimination half life in cynomolgus monkey at 3 mg/kg, po or 1 mg/kg, iv measured up to 24 hrs by LC-MS/MS analysis; type: ADME, organism-based, Macaca fascicularis; details: in vivo, read-out: beta t1/2 (converted)
[10] = Protein binding in Cynomolgus monkey plasma assessed as free fraction at 3 mg/kg, po or 1 mg/kg, iv measured up to 24 hrs by LC-MS/MS analysis; type: ADME, organism-based, Macaca fascicularis
[11] = target: T1, Cytochrome P450 1A2 (Homo sapiens, UniProt P05177); experiment: Inhibition of CYP1A2 (unknown origin); type: ADME
T1 sequence (P05177 whole entry): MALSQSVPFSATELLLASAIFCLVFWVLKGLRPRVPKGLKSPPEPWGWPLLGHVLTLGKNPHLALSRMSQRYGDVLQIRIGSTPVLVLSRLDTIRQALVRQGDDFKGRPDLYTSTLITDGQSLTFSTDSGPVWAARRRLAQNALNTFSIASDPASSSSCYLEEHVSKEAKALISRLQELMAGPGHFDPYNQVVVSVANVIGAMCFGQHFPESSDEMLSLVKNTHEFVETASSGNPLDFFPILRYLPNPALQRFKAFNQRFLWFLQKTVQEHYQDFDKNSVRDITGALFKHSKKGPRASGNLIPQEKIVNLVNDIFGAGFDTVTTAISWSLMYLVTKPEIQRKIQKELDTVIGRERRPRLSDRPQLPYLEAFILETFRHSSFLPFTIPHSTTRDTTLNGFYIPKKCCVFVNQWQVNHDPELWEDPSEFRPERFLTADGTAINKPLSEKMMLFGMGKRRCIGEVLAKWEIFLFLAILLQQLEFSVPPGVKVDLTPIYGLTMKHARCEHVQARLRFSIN

[12] = target: T2, Solute carrier organic anion transporter family member 1B3 (Homo sapiens, UniProt Q9NPD5); experiment: Inhibition of OATP1B3 (unknown origin); type: ADME
T2 sequence (Q9NPD5 whole entry): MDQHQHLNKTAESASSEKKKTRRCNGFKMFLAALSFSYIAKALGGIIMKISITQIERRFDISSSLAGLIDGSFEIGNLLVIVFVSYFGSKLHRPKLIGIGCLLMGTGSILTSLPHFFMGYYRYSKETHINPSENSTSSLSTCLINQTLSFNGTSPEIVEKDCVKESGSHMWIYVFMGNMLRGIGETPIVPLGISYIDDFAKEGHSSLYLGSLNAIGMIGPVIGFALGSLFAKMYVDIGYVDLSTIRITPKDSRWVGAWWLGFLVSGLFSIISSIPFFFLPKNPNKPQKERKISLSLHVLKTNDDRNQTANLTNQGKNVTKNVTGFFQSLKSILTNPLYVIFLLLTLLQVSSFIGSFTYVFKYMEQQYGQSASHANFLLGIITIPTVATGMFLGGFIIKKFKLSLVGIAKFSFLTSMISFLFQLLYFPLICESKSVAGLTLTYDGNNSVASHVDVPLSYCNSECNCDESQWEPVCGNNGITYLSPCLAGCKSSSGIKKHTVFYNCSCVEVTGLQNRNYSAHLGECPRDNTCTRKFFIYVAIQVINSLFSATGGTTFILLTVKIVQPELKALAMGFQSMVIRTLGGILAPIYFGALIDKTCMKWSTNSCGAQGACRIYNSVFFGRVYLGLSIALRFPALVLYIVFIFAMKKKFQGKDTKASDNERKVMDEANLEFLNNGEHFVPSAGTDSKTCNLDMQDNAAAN

[13] = target: T3, Cytochrome P450 2C8 (Homo sapiens, UniProt P10632); experiment: Inhibition of CYP2C8 (unknown origin); type: ADME
T3 sequence (P10632 whole entry): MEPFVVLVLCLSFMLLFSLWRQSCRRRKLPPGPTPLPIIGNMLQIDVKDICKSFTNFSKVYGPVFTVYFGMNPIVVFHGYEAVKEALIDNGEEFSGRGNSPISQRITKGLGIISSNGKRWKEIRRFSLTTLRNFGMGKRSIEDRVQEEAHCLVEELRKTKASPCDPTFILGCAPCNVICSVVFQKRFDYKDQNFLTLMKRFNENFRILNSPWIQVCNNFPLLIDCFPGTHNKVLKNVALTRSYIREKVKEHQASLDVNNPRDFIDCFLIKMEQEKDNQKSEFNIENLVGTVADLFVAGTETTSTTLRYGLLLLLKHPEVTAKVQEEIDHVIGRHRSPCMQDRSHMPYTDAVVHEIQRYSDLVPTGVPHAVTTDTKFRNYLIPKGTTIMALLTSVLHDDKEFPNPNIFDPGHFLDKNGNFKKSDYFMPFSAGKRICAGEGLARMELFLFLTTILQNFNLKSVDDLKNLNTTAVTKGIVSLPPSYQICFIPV

[14] = target: Cytochrome P450 3A4 (Homo sapiens, UniProt P08684); experiment: Inhibition of CYP3A4 (unknown origin); type: ADME
Sequence of Cytochrome P450 3A4 (P08684 whole entry): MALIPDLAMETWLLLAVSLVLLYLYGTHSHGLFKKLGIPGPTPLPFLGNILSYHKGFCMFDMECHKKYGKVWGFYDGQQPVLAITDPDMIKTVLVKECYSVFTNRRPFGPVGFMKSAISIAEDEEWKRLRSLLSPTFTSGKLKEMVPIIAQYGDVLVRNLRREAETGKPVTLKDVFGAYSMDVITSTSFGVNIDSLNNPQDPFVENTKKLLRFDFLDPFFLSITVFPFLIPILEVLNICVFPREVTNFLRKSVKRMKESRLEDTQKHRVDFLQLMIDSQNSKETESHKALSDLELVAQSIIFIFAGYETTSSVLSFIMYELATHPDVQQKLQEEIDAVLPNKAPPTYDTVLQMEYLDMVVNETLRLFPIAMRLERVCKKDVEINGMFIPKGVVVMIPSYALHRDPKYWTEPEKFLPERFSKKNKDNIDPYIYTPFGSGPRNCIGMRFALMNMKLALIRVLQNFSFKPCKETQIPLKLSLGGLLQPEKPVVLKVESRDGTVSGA

[15] = target: Cytochrome P450 2D6 (Homo sapiens, UniProt P10635); experiment: Inhibition of CYP2D6 (unknown origin); type: ADME
Sequence of Cytochrome P450 2D6 (P10635 whole entry): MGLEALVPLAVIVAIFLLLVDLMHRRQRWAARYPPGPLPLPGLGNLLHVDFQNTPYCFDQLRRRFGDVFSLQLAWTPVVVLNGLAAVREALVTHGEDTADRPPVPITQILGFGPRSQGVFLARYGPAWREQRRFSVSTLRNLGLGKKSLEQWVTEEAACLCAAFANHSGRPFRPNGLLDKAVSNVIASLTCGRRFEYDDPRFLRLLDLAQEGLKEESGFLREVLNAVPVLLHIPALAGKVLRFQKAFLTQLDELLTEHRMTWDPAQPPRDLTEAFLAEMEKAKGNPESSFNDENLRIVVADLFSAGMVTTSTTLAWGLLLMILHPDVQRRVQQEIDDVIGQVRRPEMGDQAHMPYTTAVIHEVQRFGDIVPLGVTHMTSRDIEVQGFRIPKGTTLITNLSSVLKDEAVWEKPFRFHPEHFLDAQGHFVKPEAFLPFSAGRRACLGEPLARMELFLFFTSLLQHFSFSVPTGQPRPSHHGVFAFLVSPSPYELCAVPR

[16] = target: CYP2B6 (Homo sapiens, UniProt P20813); experiment: Induction of CYP2B6 in human hepatocytes; type: ADME, cell-based, Hepatocyte
Sequence of CYP2B6 (P20813 whole entry): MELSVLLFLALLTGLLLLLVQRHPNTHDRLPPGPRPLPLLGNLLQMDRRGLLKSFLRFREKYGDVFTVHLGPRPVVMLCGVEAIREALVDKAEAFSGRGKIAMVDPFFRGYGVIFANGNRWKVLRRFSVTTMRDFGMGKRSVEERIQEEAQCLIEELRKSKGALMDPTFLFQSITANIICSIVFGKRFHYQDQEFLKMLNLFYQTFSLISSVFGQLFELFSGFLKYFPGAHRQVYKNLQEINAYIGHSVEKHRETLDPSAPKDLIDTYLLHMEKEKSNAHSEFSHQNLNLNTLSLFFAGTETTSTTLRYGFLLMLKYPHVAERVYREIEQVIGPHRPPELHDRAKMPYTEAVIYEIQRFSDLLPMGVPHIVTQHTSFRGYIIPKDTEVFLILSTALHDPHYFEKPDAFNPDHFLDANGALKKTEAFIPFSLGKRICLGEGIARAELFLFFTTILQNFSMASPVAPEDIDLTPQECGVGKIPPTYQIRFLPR

[17] = target: CYP2C9 (Homo sapiens, UniProt P11712); experiment: Induction of CYP2C9 in human hepatocytes; type: ADME, cell-based, Hepatocyte
Sequence of CYP2C9 (P11712 whole entry): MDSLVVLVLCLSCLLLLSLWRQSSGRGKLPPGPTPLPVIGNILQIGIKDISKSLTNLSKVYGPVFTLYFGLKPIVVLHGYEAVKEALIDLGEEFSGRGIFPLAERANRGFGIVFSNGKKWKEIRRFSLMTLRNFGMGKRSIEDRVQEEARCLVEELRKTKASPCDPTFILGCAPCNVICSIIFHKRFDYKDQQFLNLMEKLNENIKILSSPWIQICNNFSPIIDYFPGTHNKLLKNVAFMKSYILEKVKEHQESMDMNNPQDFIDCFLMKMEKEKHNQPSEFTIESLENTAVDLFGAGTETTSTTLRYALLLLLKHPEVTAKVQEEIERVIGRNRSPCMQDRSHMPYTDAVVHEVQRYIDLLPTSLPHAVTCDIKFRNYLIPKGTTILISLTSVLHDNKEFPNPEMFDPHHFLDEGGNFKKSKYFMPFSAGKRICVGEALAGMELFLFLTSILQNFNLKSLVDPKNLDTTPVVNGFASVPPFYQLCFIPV

[18] = Half life in mouse liver microsomes at 10 uM measured after 120 mins; type: ADME, Microsome
[19] = Aqueous solubility of compound at pH 7.4; type: physicochemical
[20] = Drug metabolism in monkey hepatocytes assessed as formation of acyl glucuronides metabolites at 10 uM measured after 2 hrs by LC/UV/MS analysis; type: ADME, cell-based, Macaca mulatta, Hepatocyte; details: rhesus monkey
[21] = Lipophilicity, log D of compound at pH 6.5 by shake-flask method; type: physicochemical; details: buffer
[22] = Drug metabolism in human hepatocytes assessed as carbamate hydrolytic product formation at 10 uM measured after 2 hrs by LC/UV/MS analysis; type: ADME, cell-based, Hepatocyte

Row | fraction unbound at 24 h [1] | clearance [2] [L/h/kg] | clearance [3] [L/h/kg] | clearance [4] [L/h/kg] | Vd [5] [L/kg] | bioavailability [6] [%] | bioavailability [7] [%] | half-life [8] [h] | half-life [9] [h] | fraction unbound at 24 h [10] | IC50 [11] [µM] | IC50 [12] [µM] | IC50 [13] [µM] | IC50 [14] [µM] | IC50 [15] [µM] | IC50 [17] [µM] | half-life at 10 µM [18] [h] | logD [21] | SMILES | IC50 [16] [µM] | solubility [19] [mg/mL] | other results
1 | 0.053 | 7.1 | 6.27 | 1.02 | 14.6 | 91 | 69 | 2 | 14 | 0.009 | > 40 | 2.6 | > 40 | > 40 | > 40 | > 50 | > 2 | 2.3 | Cc1nc(-c2nnn(C)c2COC(=O)N(C)CC2CCC2)ccc1O[C@H]1CCC[C@H](C(=O)O)C1 | > 50 | 0.705 (≈ 1500 µM) | Drug metabolism [20]: Metabolite_Detected; Drug metabolism [22]: Metabolite_Notdetected
2 | 0.126 | 2.22 | 0.9 | 0.12 | 5.5 | 70 | 100 | 4.5 | 11 | 0.008 | > 40 | 10 | > 40 | > 40 | > 40 | > 50 | > 2 | 1.95 | CCCN(C)C(=O)OCc1c(-c2ccc(O[C@H]3CCC[C@H](C(=O)O)C3)c(C)n2)nnn1C [ADMILPARANT] | – | – | Drug metabolism [20]: Metabolite_Detected; Drug metabolism [22]: Metabolite_Detected

Row | SMILES | fraction unbound at 24 h [1] | clearance [2] [L/h/kg] | clearance [3] [L/h/kg] | clearance [4] [L/h/kg] | Vd [5] [L/kg] | bioavailability [6] [%] | bioavailability [7] [%] | half-life [8] [h] | half-life [9] [h] | fraction unbound at 24 h [10] | IC50 [11] [µM] | IC50 [12] [µM] | IC50 [13] [µM] | IC50 [14] [µM] | IC50 [15] [µM] | IC50 [17] [µM] | half-life at 10 µM [18] [h] | logD [21] | IC50 [16] [µM] | solubility [19] [mg/mL] | other results
3 | Cc1noc(-c2ccc(-c3ccc(C4(C(=O)O)CC4)cc3)cc2)c1NC(=O)O[C@H](C)c1ccccc1 [BMS-986020] | 0.002 | – | – | – | – | – | – | – | – | – | > 50 | 0.57 | 3.5 | > 50 | > 50 | > 50 | 1.52 | 3.6 | > 50 | 0.011 (≈ 22.8 µM) | –
